# Measurements as given in ChEMBL document CHEMBL4321836, “Discovery of BAY-298 and BAY-899: Tetrahydro-1,6-naphthyridine-Based, Potent, and Selective Antagonists of the Luteinizing Hormone Receptor Which Reduce Sex Hormone Levels in Vivo” (J Med Chem, 2019).
# What was measured:
# [1] = biological target: Kappa-type opioid receptor (Homo sapiens) (UniProt P41145); test: Antagonist activity at human kappa opioid receptor at 10 uM by Spectrophotometric method relative to control; design: scale not given: the % may be the effect or the level left
# Chain of Kappa-type opioid receptor (Homo sapiens) (P41145 whole entry): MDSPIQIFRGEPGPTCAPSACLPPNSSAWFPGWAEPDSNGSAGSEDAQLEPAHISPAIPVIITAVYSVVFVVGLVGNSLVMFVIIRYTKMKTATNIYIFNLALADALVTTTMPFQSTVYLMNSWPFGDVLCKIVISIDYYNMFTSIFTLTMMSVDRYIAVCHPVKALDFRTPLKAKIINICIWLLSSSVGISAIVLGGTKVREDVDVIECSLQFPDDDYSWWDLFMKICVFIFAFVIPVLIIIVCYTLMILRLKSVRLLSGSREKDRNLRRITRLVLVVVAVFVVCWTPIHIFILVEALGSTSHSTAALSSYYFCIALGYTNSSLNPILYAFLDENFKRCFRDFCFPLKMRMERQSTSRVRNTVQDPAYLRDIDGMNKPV
# [2] = biological target: T1, Adenosine receptor A2b (Homo sapiens) (UniProt P29275); test: Agonist activity at human A2B receptor expressed in HEK293 cells at 10 uM after 10 mins by HTRF assay relative to control; type: cell-based
# T1 sequence (whole entry): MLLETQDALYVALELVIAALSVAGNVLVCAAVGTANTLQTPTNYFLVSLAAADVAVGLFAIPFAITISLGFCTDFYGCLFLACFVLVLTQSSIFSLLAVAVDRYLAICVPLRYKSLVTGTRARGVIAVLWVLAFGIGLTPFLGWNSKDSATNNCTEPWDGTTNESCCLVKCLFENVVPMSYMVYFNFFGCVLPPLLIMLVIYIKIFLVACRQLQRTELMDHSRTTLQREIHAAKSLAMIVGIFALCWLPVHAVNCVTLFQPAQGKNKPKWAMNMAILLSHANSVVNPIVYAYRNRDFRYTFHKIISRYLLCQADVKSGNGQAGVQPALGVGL
# [3] = biological target: T2, Muscarinic acetylcholine receptor M1 (Homo sapiens) (UniProt P11229); test: Antagonist activity at human muscarinic M1 receptor expressed in CHO-K1 cells at 10 uM by fluorimetric method relative to control; type: cell-based; design: scale not given: the % may be the effect or the level left
# T2 sequence (whole entry): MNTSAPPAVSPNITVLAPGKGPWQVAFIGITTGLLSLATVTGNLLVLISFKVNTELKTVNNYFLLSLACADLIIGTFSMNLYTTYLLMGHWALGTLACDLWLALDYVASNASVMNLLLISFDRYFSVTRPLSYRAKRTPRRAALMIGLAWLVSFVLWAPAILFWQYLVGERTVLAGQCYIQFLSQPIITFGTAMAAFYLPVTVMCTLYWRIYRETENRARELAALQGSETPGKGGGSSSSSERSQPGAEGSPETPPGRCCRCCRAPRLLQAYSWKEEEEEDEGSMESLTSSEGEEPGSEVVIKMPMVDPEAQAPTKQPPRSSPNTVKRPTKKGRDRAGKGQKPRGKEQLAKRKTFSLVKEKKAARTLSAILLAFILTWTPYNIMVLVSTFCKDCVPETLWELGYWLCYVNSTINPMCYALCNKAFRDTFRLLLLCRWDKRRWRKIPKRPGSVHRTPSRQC
# [4] = Half life in Wistar rat at 0.5 mg/kg, iv after 2 to 72 hrs by LC-MS/MS analysis; type: ADME, organism-based; details: in vivo
# [5] = biological target: Muscarinic acetylcholine receptor M4 (Homo sapiens) (UniProt P08173); test: Agonist activity at human muscarinic M4 receptor expressed in CHO-K1 cells at 10 uM after 10 mins by HTRF method relative to control; type: cell-based
# Chain of Muscarinic acetylcholine receptor M4 (Homo sapiens) (P08173 whole entry): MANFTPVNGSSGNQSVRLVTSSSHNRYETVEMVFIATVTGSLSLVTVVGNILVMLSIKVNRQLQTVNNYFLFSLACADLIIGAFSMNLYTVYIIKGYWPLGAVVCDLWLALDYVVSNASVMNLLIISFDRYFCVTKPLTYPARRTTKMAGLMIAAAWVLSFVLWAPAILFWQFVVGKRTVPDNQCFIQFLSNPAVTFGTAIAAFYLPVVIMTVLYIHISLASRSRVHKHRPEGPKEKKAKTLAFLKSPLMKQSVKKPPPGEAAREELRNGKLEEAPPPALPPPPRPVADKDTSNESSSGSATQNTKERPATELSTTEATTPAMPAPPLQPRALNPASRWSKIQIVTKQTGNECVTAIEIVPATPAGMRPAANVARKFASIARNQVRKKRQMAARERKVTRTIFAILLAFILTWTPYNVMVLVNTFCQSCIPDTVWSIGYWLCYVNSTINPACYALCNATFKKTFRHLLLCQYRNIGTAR
# [6] = Plasma concentration in female rat at 12.5 mg/kg, po administered once daily for 8 days and measured on day 8; type: ADME, organism-based
# [7] = Chemical stability of the compound at pH 1 to 10 measured after 1 to 24 hrs by HPLC-UV method; type: physicochemical; details: buffer
# [8] = biological target: Somatostatin receptor type 4 (Homo sapiens) (UniProt P31391); test: Antagonist activity at human sst4 expressed in CHO-K1 cells at 10 uM after 10 mins by HTRF assay relative to control; type: cell-based; design: scale not given: the % may be the effect or the level left
# Chain of Somatostatin receptor type 4 (Homo sapiens) (P31391 whole entry): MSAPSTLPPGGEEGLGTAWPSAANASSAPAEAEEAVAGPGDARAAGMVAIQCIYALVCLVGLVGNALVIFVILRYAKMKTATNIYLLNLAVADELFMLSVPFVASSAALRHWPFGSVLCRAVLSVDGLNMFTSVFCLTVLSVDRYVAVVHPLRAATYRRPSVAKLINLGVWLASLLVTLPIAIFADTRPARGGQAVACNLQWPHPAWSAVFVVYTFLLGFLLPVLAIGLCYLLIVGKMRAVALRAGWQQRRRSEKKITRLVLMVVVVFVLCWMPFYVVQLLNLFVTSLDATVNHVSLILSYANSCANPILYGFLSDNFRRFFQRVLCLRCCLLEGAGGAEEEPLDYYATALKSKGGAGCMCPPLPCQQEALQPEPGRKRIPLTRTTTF
# [9] = Half life in Wistar rat at 2 mg/kg, po after 8 to 72 hrs by LC-MS/MS analysis; type: ADME, organism-based; details: in vivo
# [10] = Aqueous solubility of the compound at pH 6.5 incubated for 24 hrs under shaking condition by HPLC-MS/MS analysis; type: physicochemical; details: buffer
# [11] = biological target: Beta-2 adrenergic receptor (Homo sapiens) (UniProt P07550); test: Agonist activity at human beta2 adrenergic receptor expressed in CHO-K1 cells at 10 uM after 30 mins HTRF assay relative to control; type: cell-based
# Chain of Beta-2 adrenergic receptor (Homo sapiens) (P07550 whole entry, looked up): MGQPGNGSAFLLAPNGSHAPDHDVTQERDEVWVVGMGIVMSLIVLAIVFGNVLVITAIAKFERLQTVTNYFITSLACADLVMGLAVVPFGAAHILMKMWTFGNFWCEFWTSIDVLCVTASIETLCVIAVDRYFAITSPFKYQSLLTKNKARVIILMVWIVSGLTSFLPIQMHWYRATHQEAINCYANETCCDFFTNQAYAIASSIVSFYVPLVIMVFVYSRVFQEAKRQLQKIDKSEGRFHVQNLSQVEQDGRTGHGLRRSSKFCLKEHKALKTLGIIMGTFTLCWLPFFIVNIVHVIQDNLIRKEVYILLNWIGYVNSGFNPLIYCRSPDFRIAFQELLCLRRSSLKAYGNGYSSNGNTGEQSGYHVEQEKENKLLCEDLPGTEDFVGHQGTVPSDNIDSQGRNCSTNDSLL
# [12] = biological target: T3, 5-hydroxytryptamine receptor 1A (Homo sapiens) (UniProt P08908); test: Antagonist activity at human 5-HT1A receptor expressed in mouse BA/F3 cells at 10 uM by fluorimetric method relative to control; type: cell-based; design: scale not given: the % may be the effect or the level left
# T3 sequence (whole entry): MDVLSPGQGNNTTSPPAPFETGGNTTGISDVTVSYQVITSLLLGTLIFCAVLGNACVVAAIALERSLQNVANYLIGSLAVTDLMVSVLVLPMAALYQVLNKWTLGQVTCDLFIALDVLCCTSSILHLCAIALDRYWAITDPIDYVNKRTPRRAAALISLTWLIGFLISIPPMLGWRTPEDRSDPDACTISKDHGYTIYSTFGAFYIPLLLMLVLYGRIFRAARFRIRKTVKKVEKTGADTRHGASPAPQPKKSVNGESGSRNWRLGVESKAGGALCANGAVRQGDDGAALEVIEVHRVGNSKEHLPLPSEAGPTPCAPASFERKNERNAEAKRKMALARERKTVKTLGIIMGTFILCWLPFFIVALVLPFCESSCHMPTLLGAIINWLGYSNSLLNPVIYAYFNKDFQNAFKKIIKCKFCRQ
# [13] = biological target: T2, Muscarinic acetylcholine receptor M1 (Homo sapiens); test: Agonist activity at human muscarinic M1 receptor expressed in CHO-K1 cells at 10 uM by fluorimetric method relative to control; type: cell-based
# [14] = biological target: Mu-type opioid receptor (Homo sapiens) (UniProt P35372); test: Agonist activity at human mu opioid receptor expressed in CHO-K1 cells at 10 uM after 10 mins by HTRF assay relative to control; type: cell-based
# Chain of Mu-type opioid receptor (Homo sapiens) (P35372 whole entry): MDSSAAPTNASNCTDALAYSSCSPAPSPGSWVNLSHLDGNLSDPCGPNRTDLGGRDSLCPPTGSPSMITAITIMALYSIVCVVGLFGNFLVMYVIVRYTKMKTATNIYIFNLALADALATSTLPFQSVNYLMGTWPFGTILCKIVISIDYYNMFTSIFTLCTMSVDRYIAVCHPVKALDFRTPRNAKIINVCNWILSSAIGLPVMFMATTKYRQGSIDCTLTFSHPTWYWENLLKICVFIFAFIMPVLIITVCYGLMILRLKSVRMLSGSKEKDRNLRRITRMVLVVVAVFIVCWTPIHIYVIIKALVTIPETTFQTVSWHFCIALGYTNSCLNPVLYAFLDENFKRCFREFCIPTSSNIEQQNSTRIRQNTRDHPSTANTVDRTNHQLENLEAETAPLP
# [15] = biological target: Histamine H1 receptor (Homo sapiens) (UniProt P35367); test: Agonist activity at human histamine H1 receptor expressed in HEK293 cells at 10 uM by Fluorimetric method relative to control; type: cell-based
# Chain of Histamine H1 receptor (Homo sapiens) (P35367 whole entry): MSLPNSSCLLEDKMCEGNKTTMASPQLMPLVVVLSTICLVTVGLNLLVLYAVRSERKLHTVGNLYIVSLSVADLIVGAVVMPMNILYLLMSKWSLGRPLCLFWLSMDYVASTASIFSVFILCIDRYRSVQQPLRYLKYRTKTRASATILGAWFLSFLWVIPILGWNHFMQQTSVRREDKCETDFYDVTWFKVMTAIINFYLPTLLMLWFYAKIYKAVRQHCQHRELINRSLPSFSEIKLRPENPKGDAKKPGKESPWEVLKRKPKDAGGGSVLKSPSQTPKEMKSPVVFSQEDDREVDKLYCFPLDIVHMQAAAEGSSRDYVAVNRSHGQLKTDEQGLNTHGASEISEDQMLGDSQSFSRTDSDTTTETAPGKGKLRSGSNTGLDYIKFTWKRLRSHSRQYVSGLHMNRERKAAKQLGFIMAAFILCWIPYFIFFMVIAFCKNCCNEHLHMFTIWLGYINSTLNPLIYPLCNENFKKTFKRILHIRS
# [16] = biological target: D(1A) dopamine receptor (Homo sapiens) (UniProt P21728); test: Agonist activity at human D1 receptor expressed in CHO-K1 cells at 10 uM after 30 mins HTRF assay relative to control; type: cell-based
# Chain of D(1A) dopamine receptor (Homo sapiens) (P21728 whole entry): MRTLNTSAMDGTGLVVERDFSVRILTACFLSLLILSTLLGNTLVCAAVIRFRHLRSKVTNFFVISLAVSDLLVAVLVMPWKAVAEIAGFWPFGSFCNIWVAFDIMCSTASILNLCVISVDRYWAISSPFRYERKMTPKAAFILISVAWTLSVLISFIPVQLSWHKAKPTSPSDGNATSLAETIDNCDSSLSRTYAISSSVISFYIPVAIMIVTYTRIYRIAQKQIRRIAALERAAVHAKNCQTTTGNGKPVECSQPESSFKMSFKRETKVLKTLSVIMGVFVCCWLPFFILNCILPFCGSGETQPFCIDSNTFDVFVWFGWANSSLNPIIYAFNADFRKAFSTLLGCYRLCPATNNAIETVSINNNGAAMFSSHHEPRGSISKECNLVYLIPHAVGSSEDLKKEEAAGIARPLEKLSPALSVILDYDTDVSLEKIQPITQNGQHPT
# [17] = Tmax in Wistar rat at 2 mg/kg, po after 8 to 72 hrs by LC-MS/MS analysis; type: ADME, organism-based; details: in vivo
# [18] = biological target: Histamine H3 receptor (Homo sapiens) (UniProt Q9Y5N1); test: Agonist activity at human histamine H3 receptor expressed in CHO-K1 cells at 10 uM after 10 mins by HTRF assay relative to control; type: cell-based
# Chain of Histamine H3 receptor (Homo sapiens) (Q9Y5N1 whole entry): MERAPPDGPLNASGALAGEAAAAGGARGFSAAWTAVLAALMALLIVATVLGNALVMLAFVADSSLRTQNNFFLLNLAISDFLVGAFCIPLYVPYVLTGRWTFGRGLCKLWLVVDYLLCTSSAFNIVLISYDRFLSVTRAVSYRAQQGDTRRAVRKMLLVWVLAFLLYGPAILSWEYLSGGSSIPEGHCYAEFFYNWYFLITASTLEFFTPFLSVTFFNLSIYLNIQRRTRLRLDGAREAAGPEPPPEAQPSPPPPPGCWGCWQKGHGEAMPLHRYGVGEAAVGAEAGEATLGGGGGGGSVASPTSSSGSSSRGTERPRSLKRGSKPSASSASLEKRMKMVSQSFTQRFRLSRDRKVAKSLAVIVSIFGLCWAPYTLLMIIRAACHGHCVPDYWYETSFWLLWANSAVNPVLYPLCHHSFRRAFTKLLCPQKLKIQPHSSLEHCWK
# [19] = biological target: 5-hydroxytryptamine receptor 6 (Homo sapiens) (UniProt P50406); test: Antagonist activity at human 5-HT6 receptor expressed in CHO-K1 cells at 10 uM after 30 mins by HTRF assay relative to control; type: cell-based; design: scale not given: the % may be the effect or the level left
# Chain of 5-hydroxytryptamine receptor 6 (Homo sapiens) (P50406 whole entry): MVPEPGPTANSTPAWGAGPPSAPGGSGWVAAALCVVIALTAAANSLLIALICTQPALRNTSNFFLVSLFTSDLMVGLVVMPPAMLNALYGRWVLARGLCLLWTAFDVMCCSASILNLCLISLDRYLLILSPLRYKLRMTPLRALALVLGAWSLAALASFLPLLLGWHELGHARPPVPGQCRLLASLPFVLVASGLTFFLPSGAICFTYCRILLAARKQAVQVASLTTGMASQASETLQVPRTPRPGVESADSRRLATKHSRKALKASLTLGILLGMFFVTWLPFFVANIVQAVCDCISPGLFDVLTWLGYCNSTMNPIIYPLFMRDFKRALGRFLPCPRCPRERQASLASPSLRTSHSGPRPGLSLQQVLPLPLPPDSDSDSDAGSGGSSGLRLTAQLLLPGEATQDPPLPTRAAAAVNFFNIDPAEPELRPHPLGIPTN
# [20] = biological target: D(2) dopamine receptor (Homo sapiens) (UniProt P14416); test: Antagonist activity at human Dopamine D2L receptor expressed in CHO-K1 cells at 10 uM by Fluorimetric analysis relative to control; type: cell-based; design: scale not given: the % may be the effect or the level left
# Chain of D(2) dopamine receptor (Homo sapiens) (P14416 whole entry): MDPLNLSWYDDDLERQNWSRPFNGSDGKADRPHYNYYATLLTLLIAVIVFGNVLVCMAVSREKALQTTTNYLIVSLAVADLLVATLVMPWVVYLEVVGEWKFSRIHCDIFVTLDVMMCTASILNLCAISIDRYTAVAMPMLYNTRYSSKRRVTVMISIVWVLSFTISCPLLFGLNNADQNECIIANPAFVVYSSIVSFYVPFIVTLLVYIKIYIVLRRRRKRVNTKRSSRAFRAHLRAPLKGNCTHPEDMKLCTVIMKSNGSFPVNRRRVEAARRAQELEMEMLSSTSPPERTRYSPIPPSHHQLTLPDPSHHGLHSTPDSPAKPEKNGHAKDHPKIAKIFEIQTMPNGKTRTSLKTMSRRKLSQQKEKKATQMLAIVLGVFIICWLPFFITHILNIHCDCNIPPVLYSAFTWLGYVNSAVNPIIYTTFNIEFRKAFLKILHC
# [21] = Toxicity in female rat assessed as reduction in body weight; details: in vivo
# [22] = biological target: Histamine H2 receptor (Homo sapiens) (UniProt P25021); test: Antagonist activity at human histamine H2 receptor expressed in CHO-K1 cells at 10 uM after 30 mins by HTRF assay relative to control; type: cell-based; design: scale not given: the % may be the effect or the level left
# Chain of Histamine H2 receptor (Homo sapiens) (P25021 whole entry): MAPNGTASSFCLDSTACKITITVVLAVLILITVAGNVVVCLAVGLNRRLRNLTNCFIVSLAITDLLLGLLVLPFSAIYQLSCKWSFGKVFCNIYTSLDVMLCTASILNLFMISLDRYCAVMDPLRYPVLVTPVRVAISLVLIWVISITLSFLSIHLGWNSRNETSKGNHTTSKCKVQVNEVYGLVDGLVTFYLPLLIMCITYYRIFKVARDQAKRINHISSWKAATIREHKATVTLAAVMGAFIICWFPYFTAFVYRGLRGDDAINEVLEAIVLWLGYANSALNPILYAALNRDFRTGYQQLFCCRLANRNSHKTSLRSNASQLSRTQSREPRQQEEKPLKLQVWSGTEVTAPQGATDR
# [23] = biological target: T3, 5-hydroxytryptamine receptor 1A (Homo sapiens); test: Agonist activity at human 5-HT1A receptor expressed in mouse BA/F3 cells at 10 uM by fluorimetric method relative to control; type: cell-based
# [24] = Maximum oral bioavailability in Han Wistar rat hepatocytes at 1 uM measured after 2 to 90 mins by LC-MS/MS analysis; type: ADME, Hepatocyte; details: read-out: Fmax
Structure (SMILES),Activity [1],Activity [2],Activity [3],half-life [4],Activity [5],concentration at 192 h [6],Stability [7],Activity [8],half-life [9],solubility at 24 h [10],Activity [11],Activity [12],Activity [13],Activity [14],Activity [15],Activity [16],Tmax [17],Activity [18],Activity [19],Activity [20],also measured
O=C(Nc1ccc(Oc2ccc(F)cc2)cc1)N1CCc2ncccc2[C@@H]1c1ccc(Cl)cc1,< 70%,< 70%,< 70%,11 h,< 70%,7 µM,Stable,< 70%,12 h,3.5 µg/mL,< 70%,< 70%,< 70%,< 70%,< 70%,< 70%,24 h,< 70%,< 70%,< 70%,Activity [21]: Non-Toxic; Activity [22]: < 70%; Activity [23]: < 70%; Fh at 1 µM [24]: 74%
O=C(Nc1cnc(Oc2ccc(F)cc2)nc1)N1CCc2ncccc2[C@@H]1c1ccc(F)cc1 [BAY-899],< 70%,< 70%,< 70%,31 h,< 70%,34 µM,Stable,< 70%,33 h,39 µg/mL,< 70%,< 70%,< 70%,< 70%,< 70%,< 70%,8 h,< 70%,< 70%,< 70%,Activity [21]: Non-Toxic; Activity [22]: < 70%; Activity [23]: < 70%; Fh at 1 µM [24]: 68%
